Legend:
CDK9 = CDK9 (Homo sapiens, UniProt P50750); experiment: Kinase functional assay (mobility shift), CDK9; type: biochemical; conditions: read-out: CDK9 (% Inhib.); for inhibition at 1 µM: 1 µM compound, Table S3; for inhibition at 10 µM: 10 µM compound, Table S4
ARTD5/TNKS1 = ARTD5/TNKS1 (Homo sapiens, UniProt O95271); experiment: NAD+ quantification activity assay, TNKS1; type: biochemical; conditions: NAD+ 500 nM
Protocol: (§1) Protein (nM) NAD+ (nM) Incubation Buffer
(§2) Kinase [ATP] Substrate Incubation Reaction buffer

ARTD7/PARP15 = biological target: T1, ARTD7/PARP15 (Homo sapiens, UniProt Q460N3); experiment: ARTD profiling, ARTD7
T1 sequence (Q460N3 482-678 limits assumed): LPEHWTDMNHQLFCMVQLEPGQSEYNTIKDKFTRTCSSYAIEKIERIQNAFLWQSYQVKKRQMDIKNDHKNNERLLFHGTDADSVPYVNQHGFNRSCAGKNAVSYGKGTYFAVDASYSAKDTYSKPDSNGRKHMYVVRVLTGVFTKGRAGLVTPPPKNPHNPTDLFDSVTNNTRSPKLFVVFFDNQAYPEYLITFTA

ARTD1/PARP1 = ARTD1/PARP1 (Homo sapiens, UniProt P09874); experiment: ARTD profiling, ARTD1
ARTD1/PARP1, sequence (P09874 whole entry): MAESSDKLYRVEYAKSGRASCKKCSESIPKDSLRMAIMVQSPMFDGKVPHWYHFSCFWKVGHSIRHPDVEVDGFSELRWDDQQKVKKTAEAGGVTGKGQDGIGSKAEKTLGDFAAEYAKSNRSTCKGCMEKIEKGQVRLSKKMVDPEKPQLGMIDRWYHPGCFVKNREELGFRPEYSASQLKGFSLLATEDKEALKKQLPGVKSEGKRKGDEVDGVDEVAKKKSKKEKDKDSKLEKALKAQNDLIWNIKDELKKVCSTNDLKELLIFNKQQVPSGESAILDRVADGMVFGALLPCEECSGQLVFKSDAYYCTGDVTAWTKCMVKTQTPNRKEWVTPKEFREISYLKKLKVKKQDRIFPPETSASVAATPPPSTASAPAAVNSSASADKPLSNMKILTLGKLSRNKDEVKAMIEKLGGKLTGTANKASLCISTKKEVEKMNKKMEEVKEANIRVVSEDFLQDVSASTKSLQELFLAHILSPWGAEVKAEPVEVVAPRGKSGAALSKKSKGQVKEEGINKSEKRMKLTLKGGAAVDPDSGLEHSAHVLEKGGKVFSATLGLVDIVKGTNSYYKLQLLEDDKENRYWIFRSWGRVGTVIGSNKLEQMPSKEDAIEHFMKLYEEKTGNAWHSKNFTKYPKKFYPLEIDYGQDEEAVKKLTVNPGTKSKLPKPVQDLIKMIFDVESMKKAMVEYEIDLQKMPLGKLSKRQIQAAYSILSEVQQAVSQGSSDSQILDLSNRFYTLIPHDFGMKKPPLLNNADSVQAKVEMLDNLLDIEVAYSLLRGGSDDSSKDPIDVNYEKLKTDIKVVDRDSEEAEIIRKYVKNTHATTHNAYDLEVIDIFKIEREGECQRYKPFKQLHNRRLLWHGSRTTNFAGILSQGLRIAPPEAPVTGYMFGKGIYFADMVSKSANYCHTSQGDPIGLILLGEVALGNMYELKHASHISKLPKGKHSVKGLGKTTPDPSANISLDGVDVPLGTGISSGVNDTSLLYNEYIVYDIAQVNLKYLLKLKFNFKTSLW

ARTD10/PARP10 = biological target: T2, ARTD10/PARP10 (Homo sapiens, UniProt Q53GL7); experiment: ARTD profiling, ARTD10
T2 sequence (Q53GL7 806-1025 limits assumed): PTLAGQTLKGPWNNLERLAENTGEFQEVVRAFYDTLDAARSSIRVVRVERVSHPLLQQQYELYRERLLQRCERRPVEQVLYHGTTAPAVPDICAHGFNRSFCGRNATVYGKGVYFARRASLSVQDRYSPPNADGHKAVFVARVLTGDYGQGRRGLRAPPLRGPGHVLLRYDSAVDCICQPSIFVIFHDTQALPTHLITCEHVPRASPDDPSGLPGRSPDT

GSK3β = GSK3β (Homo sapiens, UniProt P49841); experiment: Kinase functional assay (mobility shift), GSK3β; type: biochemical; conditions: read-out: GSK3β (% Inhib.); for inhibition at 1 µM: 1 µM compound, Table S3; for inhibition at 10 µM: 10 µM compound, Table S4
GSK3β, sequence (P49841 whole entry, species assumed): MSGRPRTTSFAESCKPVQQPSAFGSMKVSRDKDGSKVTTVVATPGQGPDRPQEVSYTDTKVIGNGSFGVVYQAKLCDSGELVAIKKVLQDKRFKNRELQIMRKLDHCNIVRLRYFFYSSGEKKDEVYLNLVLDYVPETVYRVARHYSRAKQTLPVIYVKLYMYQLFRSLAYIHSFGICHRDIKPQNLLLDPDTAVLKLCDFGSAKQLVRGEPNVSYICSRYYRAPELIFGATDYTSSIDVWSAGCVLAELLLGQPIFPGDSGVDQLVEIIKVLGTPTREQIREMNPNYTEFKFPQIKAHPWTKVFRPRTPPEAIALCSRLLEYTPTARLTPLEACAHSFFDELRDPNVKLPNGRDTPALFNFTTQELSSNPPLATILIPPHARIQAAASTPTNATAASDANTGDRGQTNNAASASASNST

ARTD3/PARP3 = biological target: T3, ARTD3/PARP3 (Homo sapiens, UniProt Q9Y6F1); experiment: ARTD profiling, ARTD3; type: biochemical; conditions: NAD+ 500 nM
T3 sequence (Q9Y6F1 1-533): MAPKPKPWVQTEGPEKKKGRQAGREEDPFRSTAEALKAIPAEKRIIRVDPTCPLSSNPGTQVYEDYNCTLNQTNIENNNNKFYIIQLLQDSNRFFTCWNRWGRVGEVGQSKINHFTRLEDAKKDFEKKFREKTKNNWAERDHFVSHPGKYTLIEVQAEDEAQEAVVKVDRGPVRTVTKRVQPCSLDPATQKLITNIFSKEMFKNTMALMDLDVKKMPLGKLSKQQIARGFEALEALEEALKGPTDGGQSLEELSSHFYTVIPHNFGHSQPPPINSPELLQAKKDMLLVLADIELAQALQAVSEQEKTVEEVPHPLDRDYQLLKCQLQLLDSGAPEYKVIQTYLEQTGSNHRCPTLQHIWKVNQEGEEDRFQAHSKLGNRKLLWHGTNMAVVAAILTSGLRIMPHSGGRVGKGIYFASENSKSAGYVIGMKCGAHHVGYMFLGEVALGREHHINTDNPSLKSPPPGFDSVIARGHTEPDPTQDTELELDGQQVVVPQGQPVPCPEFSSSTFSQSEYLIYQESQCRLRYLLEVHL
Protocol: as §1, §2

Akt = experiment: Kinase functional assay (mobility shift), Akt; type: biochemical
ERK2 = ERK2 (Homo sapiens, UniProt P28482); experiment: Kinase functional assay (mobility shift), ERK2 (p42); type: biochemical; conditions: read-out: ERK2 (% Inhib.); for inhibition at 1 µM: 1 µM compound, Table S3; for inhibition at 10 µM: 10 µM compound, Table S4
ERK2, sequence (P28482 whole entry, species assumed): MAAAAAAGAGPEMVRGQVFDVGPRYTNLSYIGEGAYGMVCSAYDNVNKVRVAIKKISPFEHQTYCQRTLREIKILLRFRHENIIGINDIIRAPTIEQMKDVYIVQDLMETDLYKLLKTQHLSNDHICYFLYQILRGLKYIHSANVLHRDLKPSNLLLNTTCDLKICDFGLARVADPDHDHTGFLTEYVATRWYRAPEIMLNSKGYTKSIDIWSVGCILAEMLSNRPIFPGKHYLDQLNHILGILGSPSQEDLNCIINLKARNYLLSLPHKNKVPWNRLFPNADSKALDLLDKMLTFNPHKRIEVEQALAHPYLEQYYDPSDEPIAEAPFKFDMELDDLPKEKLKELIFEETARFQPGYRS

ARTD15/PARP16 = biological target: T4, ARTD15/PARP16 (Homo sapiens, UniProt Q8N5Y8); experiment: ARTD profiling, ARTD15
T4 sequence (Q8N5Y8 1-322): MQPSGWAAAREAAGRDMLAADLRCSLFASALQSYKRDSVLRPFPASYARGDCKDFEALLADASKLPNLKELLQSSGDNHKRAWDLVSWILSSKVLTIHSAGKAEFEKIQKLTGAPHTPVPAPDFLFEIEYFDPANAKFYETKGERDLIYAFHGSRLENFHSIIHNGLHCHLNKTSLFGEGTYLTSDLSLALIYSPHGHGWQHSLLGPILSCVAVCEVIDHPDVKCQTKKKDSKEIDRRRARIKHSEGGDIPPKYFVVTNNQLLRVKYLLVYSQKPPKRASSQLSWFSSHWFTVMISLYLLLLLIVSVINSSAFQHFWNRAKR

ARTD8/PARP14 = ARTD8/PARP14 (Homo sapiens, UniProt Q460N5); experiment: ARTD profiling, ARTD8
ARTD8/PARP14, sequence (Q460N5 whole entry): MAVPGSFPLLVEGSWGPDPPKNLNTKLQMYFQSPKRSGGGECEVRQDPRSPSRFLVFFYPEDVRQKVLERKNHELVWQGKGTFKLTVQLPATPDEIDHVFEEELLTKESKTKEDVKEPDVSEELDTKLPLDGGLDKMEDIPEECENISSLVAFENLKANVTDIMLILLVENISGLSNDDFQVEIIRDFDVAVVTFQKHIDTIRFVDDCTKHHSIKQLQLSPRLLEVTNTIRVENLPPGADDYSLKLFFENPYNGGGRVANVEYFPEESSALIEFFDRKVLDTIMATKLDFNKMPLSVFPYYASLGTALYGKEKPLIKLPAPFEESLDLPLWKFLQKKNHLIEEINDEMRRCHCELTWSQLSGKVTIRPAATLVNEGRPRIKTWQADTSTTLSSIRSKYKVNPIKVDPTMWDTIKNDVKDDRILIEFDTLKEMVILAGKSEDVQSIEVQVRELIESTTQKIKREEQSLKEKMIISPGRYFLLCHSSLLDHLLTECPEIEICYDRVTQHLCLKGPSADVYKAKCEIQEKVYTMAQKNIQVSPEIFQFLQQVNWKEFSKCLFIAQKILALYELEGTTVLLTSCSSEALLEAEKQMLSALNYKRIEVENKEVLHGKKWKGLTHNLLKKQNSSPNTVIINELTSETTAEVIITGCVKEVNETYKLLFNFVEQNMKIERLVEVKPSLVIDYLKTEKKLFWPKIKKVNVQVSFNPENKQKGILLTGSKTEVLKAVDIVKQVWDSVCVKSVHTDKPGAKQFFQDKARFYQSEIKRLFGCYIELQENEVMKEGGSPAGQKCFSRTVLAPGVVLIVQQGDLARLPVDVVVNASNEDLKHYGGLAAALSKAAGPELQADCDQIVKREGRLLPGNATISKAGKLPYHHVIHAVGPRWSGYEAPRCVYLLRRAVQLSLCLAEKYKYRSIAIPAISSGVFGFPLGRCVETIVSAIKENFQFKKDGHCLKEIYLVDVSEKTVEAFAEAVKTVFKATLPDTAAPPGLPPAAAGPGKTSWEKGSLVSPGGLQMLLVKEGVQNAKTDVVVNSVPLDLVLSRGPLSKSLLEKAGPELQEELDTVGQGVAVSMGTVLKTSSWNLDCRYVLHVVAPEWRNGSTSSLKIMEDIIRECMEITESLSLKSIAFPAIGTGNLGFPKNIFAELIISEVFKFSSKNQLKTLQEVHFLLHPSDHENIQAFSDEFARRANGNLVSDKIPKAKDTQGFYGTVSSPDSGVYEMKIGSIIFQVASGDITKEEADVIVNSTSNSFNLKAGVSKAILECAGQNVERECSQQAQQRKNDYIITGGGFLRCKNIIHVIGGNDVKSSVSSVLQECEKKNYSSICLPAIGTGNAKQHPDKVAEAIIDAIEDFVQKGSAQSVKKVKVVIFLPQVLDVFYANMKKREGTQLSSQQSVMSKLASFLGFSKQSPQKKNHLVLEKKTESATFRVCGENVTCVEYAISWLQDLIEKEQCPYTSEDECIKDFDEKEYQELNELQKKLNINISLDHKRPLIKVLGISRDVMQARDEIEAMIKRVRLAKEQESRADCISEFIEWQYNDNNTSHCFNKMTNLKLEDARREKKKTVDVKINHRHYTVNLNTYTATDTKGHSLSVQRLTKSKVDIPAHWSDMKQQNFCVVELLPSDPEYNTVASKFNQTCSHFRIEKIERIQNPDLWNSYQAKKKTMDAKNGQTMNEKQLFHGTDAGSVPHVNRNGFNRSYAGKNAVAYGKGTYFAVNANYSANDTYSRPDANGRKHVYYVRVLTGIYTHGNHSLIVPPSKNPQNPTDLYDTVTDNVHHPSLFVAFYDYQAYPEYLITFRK

ARTD12/PARP12 = biological target: T5, ARTD12/PARP12 (Homo sapiens, UniProt Q9H0J9); experiment: ARTD profiling, ARTD12
T5 sequence (Q9H0J9 484-698 limits assumed): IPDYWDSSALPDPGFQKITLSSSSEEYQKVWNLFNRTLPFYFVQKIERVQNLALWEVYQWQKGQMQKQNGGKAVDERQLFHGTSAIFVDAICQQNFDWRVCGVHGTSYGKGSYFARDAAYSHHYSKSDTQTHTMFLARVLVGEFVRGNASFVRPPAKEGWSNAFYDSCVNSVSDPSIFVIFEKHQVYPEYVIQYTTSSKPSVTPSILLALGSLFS

TNKS2 = TNKS2 (Homo sapiens, UniProt Q9H2K2); experiment: NAD+ quantification activity assay, TNKS2; type: biochemical; conditions: TNKS2 IC50, NAD+ 500 nM
TNKS2, sequence (Q9H2K2 959-1164): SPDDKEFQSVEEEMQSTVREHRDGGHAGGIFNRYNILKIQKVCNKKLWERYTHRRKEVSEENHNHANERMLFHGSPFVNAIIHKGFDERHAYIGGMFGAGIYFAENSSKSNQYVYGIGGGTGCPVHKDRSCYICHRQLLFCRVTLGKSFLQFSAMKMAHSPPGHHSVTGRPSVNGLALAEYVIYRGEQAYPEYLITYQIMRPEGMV
Protocol: The activity assay used to measure the potency of the compounds against TNKS2 is based on the quantification of NAD^+[38]. The reactions were carried out in 96-well plate (Greiner bio-one, U-shaped) and the conditions were the same as reported earlier (Table S5)[24].
The compounds were stored in 100% DMSO at −20 °C. All the compounds were diluted in the TNKS2 assay buffer (50 mM Bis-Tris Propane, 0.5 mM TCEP, 0.01% Triton-100x). Control reactions were used to exclude the effect of compound fluorescence and quenching from the calculations. […] The pIC50 values were calculated and fitted with nonlinear regression using 4-parameters with GraphPad Prism (version 5.0 for windows).
as §1, §2

CDK9, sequence (P50750 whole entry, species assumed): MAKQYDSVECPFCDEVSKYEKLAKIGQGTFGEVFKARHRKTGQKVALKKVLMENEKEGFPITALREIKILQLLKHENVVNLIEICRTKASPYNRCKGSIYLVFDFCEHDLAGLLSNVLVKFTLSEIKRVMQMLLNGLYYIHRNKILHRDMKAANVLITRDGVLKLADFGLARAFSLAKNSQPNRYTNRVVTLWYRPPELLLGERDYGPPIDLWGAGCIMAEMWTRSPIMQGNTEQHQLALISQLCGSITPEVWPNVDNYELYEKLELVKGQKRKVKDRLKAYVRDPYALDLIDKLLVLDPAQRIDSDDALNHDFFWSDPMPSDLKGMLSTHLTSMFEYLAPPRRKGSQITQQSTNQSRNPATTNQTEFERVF
CDK9, sequence (O60563 whole entry partner, species assumed): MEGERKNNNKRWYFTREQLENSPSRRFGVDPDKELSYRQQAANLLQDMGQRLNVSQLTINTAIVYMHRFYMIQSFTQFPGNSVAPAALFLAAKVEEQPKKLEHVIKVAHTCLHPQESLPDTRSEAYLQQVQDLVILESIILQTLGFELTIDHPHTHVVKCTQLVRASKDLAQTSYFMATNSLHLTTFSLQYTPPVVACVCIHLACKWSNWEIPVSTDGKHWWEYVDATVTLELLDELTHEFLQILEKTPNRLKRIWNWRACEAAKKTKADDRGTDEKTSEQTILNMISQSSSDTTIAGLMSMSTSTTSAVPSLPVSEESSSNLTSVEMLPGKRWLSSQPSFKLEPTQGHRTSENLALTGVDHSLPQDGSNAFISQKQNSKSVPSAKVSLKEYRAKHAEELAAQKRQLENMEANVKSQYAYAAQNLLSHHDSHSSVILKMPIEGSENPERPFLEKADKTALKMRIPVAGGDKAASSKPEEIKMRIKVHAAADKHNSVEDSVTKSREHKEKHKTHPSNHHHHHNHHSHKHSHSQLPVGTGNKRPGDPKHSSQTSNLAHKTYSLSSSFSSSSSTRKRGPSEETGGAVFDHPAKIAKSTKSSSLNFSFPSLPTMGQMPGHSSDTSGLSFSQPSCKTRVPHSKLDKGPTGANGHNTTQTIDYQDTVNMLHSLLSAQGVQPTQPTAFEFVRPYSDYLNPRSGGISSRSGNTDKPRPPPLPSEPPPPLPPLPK

Row | inhibition at 1 µM (CDK9) [%] | inhibition at 10 µM (CDK9) [%] | IC50 (ARTD5/TNKS1) [µM] | IC50 (ARTD7/PARP15) [µM] | IC50 (ARTD1/PARP1) [µM] | IC50 (ARTD10/PARP10) [µM] | inhibition at 1 µM (GSK3β) [%] | inhibition at 10 µM (GSK3β) [%] | IC50 (ARTD3/PARP3) [µM] | AKT (% Inhib.) (Akt; 1 µM compound, Table S3) [%] | AKT (% Inhib.) (Akt; 10 µM compound, Table S4) [%] | inhibition at 1 µM (ERK2) [%] | inhibition at 10 µM (ERK2) [%] | IC50 (ARTD15/PARP16) [µM] | IC50 (ARTD8/PARP14) [µM] | IC50 (ARTD12/PARP12) [µM] | IC50 (TNKS2) [µM] | SMILES
1 | 12 ± 4 | 31 ± 4 | 0.03 | > 10 | 18 | > 10 | 1 ± 1 | 11 ± 3 | 23 | 1 ± 1 | 2 ± 2 | 2 ± 1 | 3 ± 1 | > 10 | > 10 | > 10 | 0.015 | O=c1[nH]c(-c2ccc(N3CCCCC3)cc2)nc2ccccc12 [Compound 30]
2 | 13 ± 4 | 16 ± 3 | 0.011 | > 10 | 30 | > 10 | 1 ± 1 | 4 ± 4 | 2.1 | 1 ± 1 | 48 ± 4 | 2 ± 1 | 18 ± 3 | > 10 | > 10 | > 10 | 0.01 | CCN(CC)c1ccc(-c2nc3ccccc3c(=O)[nH]2)cc1 [Compound 32]

— publication PMC5785997, “2-Phenylquinazolinones as dual-activity tankyrase-kinase inhibitors” (Scientific Reports, 2018)
